One assay concerns BPGH16 mutant E384A. In words: Kinetics of BPGH16 mutant E384A (DNS assay). The class given is biochemical, Blautia producta ATCC 27340. The procedure:
(§1) The residues R331, L358, E379, D381, E384, W362, and H398 of BpGH16MLG were mutated to Ala by the Q5Site-Directed Mutagenesis Kit (New England Biolabs, UK, catalogue no. E0554S). Wild-type plasmid BpGH16-pET28a(+) was used as a template, and mutagenic forward and reverse primers were developed using NEBaseChanger with subtle modifications (Table S4). A 25 μl PCR cocktail was prepared for mutating each residue. The final concentration of Q5 Hot Start High-Fidelity 2X Master Mix was 1X, each primer was at 0.5 μM, the amount of used template was 20 ng, and the rest of the volume was made up of nuclease-free water. PCR was executed using the following conditions-initial denaturation was performed at 98 °C for 1 min, for each cycle-denaturation, annealing, and extension (72 °C) were set for 10 s, 20 s, and 7 min, respectively. […] The mutant protein was then expressed as per the protocol mentioned earlier, and kinetics were performed with barley β-glucan.
(§2) Reactions were performed in 100 μl volume mixture using recombinant enzyme (final concentration at 0.1 mg/ml) in 50 mM sodium phosphate buffer (pH 5.7) at 37 °C for 1 h of incubation. […] Enzymatic assays were determined with 3,5- dinitrosalicylic acid (DNS) assay ([85]). […] Consequently, recorded the developed color spectrophotometrically at 575 nm ([85]). […]

The next assay has as its system BpGH16MLG. As to the kind of experiment: Initial screening of BpGH16MLG against substrates (TLC). The assay is classed as biochemical, Blautia producta ATCC 27340. Particulars: pH 5.7, 37 °C, 2 h. The procedure:
After the appropriate incubation time, the reaction was terminated by boiling (5 min), and generated oligosaccharides were analyzed by thin layer chromatography (TLC). Typically, 1 μl of the reaction mixture was used for TLC analysis. TLC analysis was performed on Silica Gel 60 F254 (Merck), and produced sugars were visualized by spraying TLC with 5% H2SO4 in ethanol, followed by heating.

The subject of another assay is BPGH16 mutant E379A. In words: Kinetics of BPGH16 mutant E379A (DNS assay). The class given is biochemical, Blautia producta ATCC 27340. The procedure:
as §1, §2

For a further assay, the system named is BPGH16 mutant W362A. As to the kind of experiment: Kinetics of BPGH16 mutant W362A (DNS assay). The class given is biochemical, Blautia producta ATCC 27340. The procedure:
as §1, §2

A further assay concerns BpGH16MLG (BPGH16). As to the kind of experiment: Michaelis-Menten kinetics of BpGH16MLG on β-glucans (DNS assay). The class given is biochemical, Blautia producta ATCC 27340. How it is done: (§3) Then, reactions were terminated by boiling for 5 min. Enzymatic assays were determined with 3,5- dinitrosalicylic acid (DNS) assay ([85]). In brief, 0.05 g Na2SO3 and 1 g DNS were mixed in a 50 ml water-containing reagent bottle and stirred about 6 h using a magnetic stirrer. After that, 200 μl phenol was added and made up to 100 ml. A working solution of DNS was prepared by adding 50 μl glucose (20% (w/v) stock) in prepared 100 ml of reagent mixtures and immediately used for experiments without adding NaOH. 80 μl DNS reagent was added to the reaction mixtures and incubated at 100 °C for 10 min, followed by ice-cooling for 10 min. Consequently, recorded the developed color spectrophotometrically at 575 nm ([85]). A standard curve generated by different concentrations of maltose was used for determining released reducing sugars in each case.

The next assay deals with BPGH16 mutant D381A. As to the kind of experiment: Kinetics of BPGH16 mutant D381A (DNS assay). The class given is biochemical, Blautia producta ATCC 27340. The procedure:
The residues R331, L358, E379, D381, E384, W362, and H398 of BpGH16MLG were mutated to Ala by the Q5Site-Directed Mutagenesis Kit (New England Biolabs, UK, catalogue no. E0554S). Wild-type plasmid BpGH16-pET28a(+) was used as a template, and mutagenic forward and reverse primers were developed using NEBaseChanger with subtle modifications (Table S4). A 25 μl PCR cocktail was prepared for mutating each residue. The final concentration of Q5 Hot Start High-Fidelity 2X Master Mix was 1X, each primer was at 0.5 μM, the amount of used template was 20 ng, and the rest of the volume was made up of nuclease-free water. PCR was executed using the following conditions-initial denaturation was performed at 98 °C for 1 min, for each cycle-denaturation, annealing, and extension (72 °C) were set for 10 s, 20 s, and 7 min, respectively. A total of 25 cycles were performed, and the final extension was for 5 min 5 μl PCR products were loaded on 0.8% agarose gel to conform to the amplification of the mutagenic gene. Ligation of PCR products and cleavage of methylated template DNA was then performed using 5 μl KLD reaction buffer and 1 μl KLD enzyme cocktail at RT for 1 h. It was then transformed into E. coli TOP-10 cells and plasmids were isolated. The obtained plasmids were sequenced to confirm the mutation at the desired location. Once mutation was confirmed in a gene, the mutant plasmid was transformed into Rosetta (DE3) cells for protein expression. The mutant protein was then expressed as per the protocol mentioned earlier, and kinetics were performed with barley β-glucan.
as §3, with “Reactions were performed in 100 μl volume mixture using recombinant enzyme (final concentration at 0.1 mg/ml) in 50 mM sodium phosphate buffer (pH 5.7) at 37 °C for 1 h of incubation. Then,” for “Then,”

For assay [1], the system named is β-glucan utilization locus of B. producta. In words: RT-qPCR of β-glucan utilization locus genes. The assay is classed as cell-based, Blautia producta ATCC 27340. The procedure:
Changes in the transcript expression levels of the β-glucan utilization locus of B. producta were performed by RT-qPCR. B. producta was initially cultured in 5 ml of GAM for 24 h and cells were spun down by centrifugation and washed three times with sterile PBS. […] Immediately, 300 μl saturated phenol with citrate buffer (pH 4.3, […] Sigma Aldrich) was added, and the mixed solution was incubated at 60 °C for 5 min with mild shaking. After that, it was centrifuged at 15,000 g for 5 min, and the upper aqueous phase was transferred into a new Eppendorf tube. It was mixed with three volumes of chilled ethanol and incubated for 30 min at -80 °C. The precipitate was then collected by centrifugation at the same speed, the pellet was washed with 70% ethanol twice, and the final white residue was dissolved in 100 to 500 μl of distilled water. The concentration of total RNA was calculated by a spectrophotometer at 260 nm. If a residual amount of DNA was observed, DNase-1 treatment was also given, following the manufacturer's instructions (AMPD1, Sigma Aldrich). About 2 μg total RNA was immediately used for reverse transcription using AccuScript High Fidelity cDNA Synthesis Kit (Agilent). RT-qPCR was performed in a 96-well plate on a CFX96 qPCR system (BioRad) using SYBR Green Master (BioRad), using the primers mentioned in Table S2. The qPCR reactions were executed in 10 μl, consisting of 5 μl of SYBR green mix, 30 ng of cDNA, and one pmol of each primer of a gene of the locus or 16S rRNA (Table S2). […] The 2^ˆ-ΔΔCt method calculated the expression of each gene and normalized data to 16S rRNA transcript level. Finally, the expression level of each gene was calculated as fold change compared with cultures of a minimal medium containing 1% glucose. Three technical replicates were used for bar generation of each gene expression; each bar represents average values and error bars indicate the standard errors of three technical replicates.

The mark [2] stands for this setting: native BPGH16, DNS assay, pH 5.7, 37 °C.
[3] abbreviates: 1% barley β-glucan compared to glucose.

As for Barley β-glucan, the kcat in the assay on BPGH16 mutant E384A was determined as 0 s⁻¹; in the assay on BPGH16 mutant E379A it was 0 s⁻¹; in the assay on BPGH16 mutant W362A, 0 s⁻¹; in the assay with BpGH16MLG (BPGH16) (BpGH16MLG with barley MLG, no unit, in 1/s), 62 ± 1.23; in the assay on BpGH16MLG (BPGH16) (setting [2]), 62 ± 1.2 s⁻¹; in the assay with BPGH16 mutant D381A (mutant D381A, DNS assay), 35.7 ± 1.1 s⁻¹. Further, in the assay with BpGH16MLG, the “activity of BpGH16MLG on substrate (initial screening)” value is “did cleave”. For the same substance, the Km with BpGH16MLG (BPGH16) (BpGH16MLG with barley MLG, no unit) amounted to 0.22 ± 0.04; with BpGH16MLG (BPGH16) (setting [2]) it was 0.22 ± 0.04 mg/mL; in the assay with BPGH16 mutant D381A (mutant D381A, DNS assay), 0.17 ± 0.04 mg/mL. For the same substance, the “overall loss in activity” value with BPGH16 mutant D381A (D381A versus native enzyme) is given as 1.34 fold. The substance further yielded a reduction in kcat with BPGH16 mutant D381A (D381A versus native enzyme) of 1.7 fold. Besides, the “upregulation of bp1313 expression” value in assay [1] (setting [3]) is given as 5.2 fold. Moreover, in assay [1] (setting [3]), the “upregulation of bp1314 expression” value was found to be 3.9 fold. Also, the “upregulation of bp1316 expression” value in assay [1] (barley MLG versus glucose) is on record as 4.7 fold. In assay [1] (barley MLG versus glucose), the “upregulation of bp1317 expression” value worked out at 5 fold. In addition, the “upregulation of bp1318 expression” value in assay [1] (barley MLG versus glucose) was determined as 4.5 fold. Also, in assay [1] (barley β-glucan compared to glucose), the “fold change in expression of transcriptional regulator bp1315” value is given as 0.76 fold.

These data come from publication PMC10318527, “Utilization of dietary mixed-linkage β-glucans by the Firmicute Blautia producta” (The Journal of Biological Chemistry, 2023).
